Measured values reported in ChEMBL document CHEMBL5356966, “A dual mechanism with H2S inhibition and membrane damage of morusin from Morus alba Linn. against MDR-MRSA” (2024).
Values after ≈ are worked out from the molar mass of the structure shown. Active and inactive are the calls of the source. The rule behind the calls is not given here.

What was measured:
[1] = tested on: Staphylococcus aureus; assay: Antibacterial activity Staphylococcus aureus assessed as inhibition of bacterial growth incubated for 24 hrs by CLSI based analysis; assay type: functional
[2] = tested on: Enterococcus; assay: Antibacterial activity vancomycin-resistant Enterococcus assessed as inhibition of bacterial growth incubated for 24 hrs by CLSI based analysis; assay type: functional
[3] = tested on: Staphylococcus aureus; assay: Antibacterial activity methicillin-resistant Staphylococcus aureus 003 assessed as inhibition of bacterial growth incubated for 24 hrs by CLSI based analysis; assay type: functional
[4] = tested on: Staphylococcus aureus; assay: Antibacterial activity methicillin-resistant Staphylococcus aureus 011 assessed as inhibition of bacterial growth incubated for 24 hrs by CLSI based analysis; assay type: functional
[5] = tested on: Escherichia coli; assay: Antibacterial activity Escherichia coli assessed as inhibition of bacterial growth incubated for 24 hrs by CLSI based analysis; assay type: functional
[6] = tested on: Acinetobacter baumannii; assay: Antibacterial activity Acinetobacter baumannii assessed as inhibition of bacterial growth incubated for 24 hrs by CLSI based analysis; assay type: functional
[7] = tested on: Staphylococcus aureus; assay: Antibacterial activity methicillin-resistant Staphylococcus aureus 003 assessed as inhibition of H2S production at 50 uM; assay type: functional
[8] = tested on: Staphylococcus aureus; assay: Bactericidal activity against methicilin-resistant Staphylococcus aureus 003 at 4 times MIC measured after 24 hrs by time kill assay; assay type: functional, organism-based
[9] = tested on: Staphylococcus aureus; assay: In vivo antibacterial activity against methicilin-resistant Staphylococcus aureus infected in ICR mouse skin infection model assessed as wound area at 40 mg/kg, ip preadministered with compound for 24 hrs followed by bacterial infection and measured after 3 days; assay type: functional; conditions: time 96 hrs
[10] = tested on: Staphylococcus aureus; assay: Bactericidal activity against Staphylococcus aureus at 4 times MIC measured after 24 hrs by time kill assay; assay type: functional, organism-based

Compound	MIC [1] [µg/mL]	MIC [2] [µg/mL]	MIC [3] [µg/mL]	MIC [4] [µg/mL]	MIC [5] [µg/mL]	MIC [6] [µg/mL]	inhibition at 50 µM [7] [%]	Activity [8]	Activity [9] [cm2]	Activity [10]
COc1cccc(OC)c1C(=O)N[C@@H]1C(=O)N2[C@@H]1SC(C)(C)[C@@H]2C(=O)[O-].[Na+]	1	32	> 128	> 128						
CC(C)CCCCC(=O)N[C@@H](CCN)C(=O)N[C@H](C(=O)N[C@@H](CCN)C(=O)N[C@H]1CCNC(=O)[C@H]([C@@H](C)O)NC(=O)[C@H](CCN)NC(=O)[C@H](CCN)NC(=O)[C@H](CC(C)C)NC(=O)[C@@H](Cc2ccccc2)NC(=O)[C@@H](CCN)NC1=O)[C@@H](C)O.O=S(=O)(O)O	8	128	16	16	0.25	1				
NOCC(=O)O [CARBOXYMETHOXYLAMINE]							30			
CO[C@@]1(NC(=O)Cc2cccs2)C(=O)N2C(C(=O)O)=C(COC(N)=O)CS[C@@H]21 [CEFOXITIN]	2 (≈ 4.68 µM)	> 128	> 128	> 128				inactive	0.28	inactive
